Results published in publication PMC12040169 (PLOS Biology, 2025).

Assay: in vitro
Settings: human, hela cells, % viability

SMILES	viability at 28.5 h, 10 µM [%]	viability at 28.5 h, 10 µM (bulk resorufin, single well) [%]
O=C(Cn1c(NCCO)nc2ccccc21)c1ccco1 [CBK264127B]	96.3	–
COc1ccc(OC)c(N(CC(=O)N2CCN(C)CC2)S(=O)(=O)c2ccccc2)c1 [CBK264131]	98.8	–
CS(=O)(=O)N(Cc1ccccc1)c1ccc(C(=O)N2CCN(Cc3ccccc3)CC2)cc1 [CBK264134]	114	–
O=C(O)c1ccccc1OCCCCOc1cccc2cccnc12 [CBK264136]	87.2	–
CC(CC(=O)O)n1nnc2ccccc21 (stereo not shown) [CBK264139]	113	–
CC(C)(C)C1CCc2c(sc(NC(=O)CCC(=O)O)c2C(=O)Nc2ccccc2C(F)(F)F)C1 (stereo not shown) [CBK264143]	100	–
Cc1cc2c(cc1C)N(C(=O)CSc1nc3ccccc3[nH]1)C(C)(C)CC2C (stereo not shown) [CBK264144]	98.7	–
Nc1ncnc2[nH]c(SCc3nc4ccccc4n3Cc3ccccc3)nc12 [CBK264148]	103	–
NC(=O)CN(Cc1ccc(Cl)cc1)S(=O)(=O)c1ccccc1 [CBK264149]	99.5	–
N=C1/C(=C/c2cn(Cc3ccccc3)c3ccccc23)C(=O)N=C2SC(COc3ccccc3)=NN12 [CBK264150]	114	–
c1ccc2c(OCc3nc4c5c6c(sc5ncn4n3)CCCCC6)cccc2c1 [CBK264151]	99.6	–
CCOc1ccc(CN2CCN(CCCc3ccccc3)CC2)cc1 [CBK264153G]	92.7	–
COc1ccc2[nH]c(NCCCO)nc2c1 [CBK264155]	91.2	–
Cc1ccc(NC(=O)C(=O)NCCCn2ccnc2)cc1C [CBK264157]	98	–
CCOC(=O)C1CCCN(CCC(=O)Nc2cccc(C)c2)C1 (stereo not shown) [CBK264158C]	107	–
O=C1NC(=S)NC(=O)C1=Cc1ccc(OCc2ccccc2)c(C(=O)O)c1 [CBK264159]	–	117
O=C1NC(=O)C(=Cc2cc(Br)ccc2OCc2cccc(F)c2)C(=O)N1 [CBK264160]	–	104

SMILES	viability at 28.5 h, 10 µM [%]	viability at 28.5 h, 10 µM (bulk resorufin, single well) [%]
COc1cc(/C=C2\C(=O)NC(=O)N(c3cc(C)ccc3C)C2=O)ccc1O [CBK264161]	–	91
COc1cccc(CN2CCN(S(=O)(=O)c3ccccc3[N+](=O)[O-])CC2)c1OC [CBK264162]	87.4	–
CC(=O)Nc1ccc(S(=O)(=O)N2CCN(S(=O)(=O)c3ccccc3)CC2)cc1 [CBK264163]	94	–
CC(=O)Nc1ccc(S(=O)(=O)N2CCN(C(=O)COc3ccc4ccccc4c3)CC2)cc1 [CBK264164]	103	–
CCCS(=O)(=O)N1CCN(Cc2cc(Br)ccc2O)CC1 [CBK264165G]	102	–
Cc1cc(C=O)c(C)n1-c1ccc(Oc2ccc([N+](=O)[O-])cn2)cc1 [CBK264167]	99.9	–
O=[N+]([O-])c1ccccc1S(=O)(=O)N1CCN(Cc2cccnc2)CC1 [CBK264168G]	68.3	–
O=[N+]([O-])c1ccccc1S(=O)(=O)N1CCN(C2CCCCCC2)CC1 [CBK264171G]	95.4	–
O=C(CN1CCCCC1)Nc1ccc(NC(=O)CN2CCCCC2)c(Cl)c1 [CBK264173]	111	–
COc1ccc(OC)c(-c2nc(Nc3ccc(Cl)cc3Cl)sc2CC(=O)O)c1 [CBK264175]	103	–
CCNCCNc1ccc([N+](=O)[O-])cc1 [CBK264179C]	94.1	–
O=C1c2ccccc2C(=O)N1Cc1ccc(S(=O)(=O)NCc2ccc3c(c2)OCO3)cc1 [CBK264180]	98.3	–
CN(C)CCCNC(=S)Nc1ccc(Cl)cc1Cl [CBK264183]	92.5	–
CC(=O)NCCNc1ccc(C(=O)O)cc1[N+](=O)[O-] [CBK264184]	87.8	–
CCOc1ccc(Nc2nc(-c3ccc(C)cc3C)c(CC(=O)O)s2)cc1 [CBK264187]	62.5	–
COc1ccc(-n2nc3cc(C)c(NC(=S)NC(=O)c4oc5ccccc5c4C)cc3n2)cc1 [CBK264188]	103	–
NC(=O)c1c(NC(=O)C2CC(=O)OC23CCCCC3)sc2c1CCCCC2 (stereo not shown) [CBK264189]	102	–
